Key:
NF-κβ = assay: Induction of NF-κβ in THP1 dual cells (SEAP reporter); format: cell-based; details: 20 h incubation, SEAP levels at 620-655 nm
Description: (§1) Example 6. In Vitro Induction of IRF and NF-κβ in THP1 Cells Table 2
(§2) THP1 dual cells grown in complete media were treated with various concentrations of a compound of the present disclosure or DMSO control. Dual cells carry both secreted embryonic alkaline phosphatase (SEAP) reporter gene under the control of an IFN-β minimal promoter fused to five copies of the NF-kB consensus transcriptional response element to measure NF-kB activity and Lucia reporter gene under the control of an ISG54 minimal promoter to measure IRF activity. After 20 h incubation, IRF activity was assessed using QUANTI-luc to measure levels of Lucia and NF-kB activity was determined by measure SEAP levels at 620-655 nm. % induction was calculated from fold change in luminescence/absorbance compared to DMSO treated sample. […] EC50 values were generated by curve fit in Xlfit.
(§3) Cells grown in complete media were treated with various concentrations of a compound of the disclosure or DMSO control. Dual cells carry both secreted embryonic alkaline phosphatase (SEAP) reporter gene under the control of an IFN-β minimal promoter fused to five copies of the NF-kB consensus transcriptional response element to measure NF-kB activity and Lucia reporter gene under the control of an ISG54 minimal promoter to measure IRF activity. After 20 h incubation, IRF activity was assessed using QUANTI-luc to measure levels of Lucia and NF-kB activity was determined by measure SEAP levels at 620-655 nm. % induction was calculated from fold change in luminescence/absorbance compared to DMSO treated sample. EC50 values are generated by curve fit in Xlfit.

IRF = assay: Induction of IRF in THP1 dual cells (ISG54 promoter Lucia reporter); format: cell-based; details: 20 h incubation, Lucia reporter (QUANTI-luc)
Description: as §1, §2, §3

Row | Compound | EC50 (NF-κβ) [µM] | EC50 (IRF) [µM]
1 | NCCCCCCCCCCOc1ccc(C(=O)Oc2ccc(CSP3(=O)OC[C@H]4O[C@@H](n5cnc6c(N)ncnc65)[C@H](F)[C@@H]4OP(=O)(O)OC[C@H]4O[C@@H](n5ccc(=O)[nH]c5=O)[C@H](F)[C@@H]4O3)cc2)cc1 (some centres unmarked) [Compound 1] | 0.5 to 1 | < 0.05
2 | Nc1ncnc2c1ncn2[C@@H]1O[C@@H]2COP(=O)(SCc3ccc(OC(=O)c4ccc(OCCCCCCCCCCO)cc4)cc3)O[C@H]3[C@@H](F)[C@H](n4ccc(=O)[nH]c4=O)O[C@@H]3COP(=O)(O)O[C@H]2[C@H]1F (some centres unmarked) [Compound 2] | 0.5 to 1 | < 0.05
3 | NCCCOCCOCCOCCOc1ccc(C(=O)Oc2ccc(CSP3(=O)OC[C@H]4O[C@@H](n5cnc6c(N)ncnc65)[C@H](F)[C@@H]4OP(=O)(O)OC[C@H]4O[C@@H](n5ccc(=O)[nH]c5=O)[C@H](F)[C@@H]4O3)cc2)cc1 (some centres unmarked) [Compound 7] | 1 to 2 | 0.05 to 0.5
4 | C=CCCC(=O)NCCCCCCCCCCCCOc1ccc(C(=O)Oc2ccc(CSP3(=O)OC[C@H]4O[C@@H](n5cnc6c(N)ncnc65)[C@H](F)[C@@H]4OP(=O)(O)OC[C@H]4O[C@@H](n5ccc(=O)[nH]c5=O)[C@H](F)[C@@H]4O3)cc2)cc1 (some centres unmarked) [Compound 8] | > 2 | 1 to 2
